Measurements as given in US20080254101A1, “PILOCARPINE COMPOSITIONS AND METHODS OF USE THEREOF” (priority 2004, published 2008).

What was measured:
[1] = at 37° C., nitrogen in the imidazole group; cited from earlier work
[2] = Ionization of pilocarpine (pKa, pH = pKa + Log10 formula); format: physicochemical; conditions: at a pH of from about 7.6 to about 8.6, using the formula
From the text: Conversion of the ionized form to the un-ionized form for pilocarpine is related to pH according to the formula: pH=pKa+Log10 (un-ionized concentration/ionized concentration). When the pH is the same as the pKa, equimolar concentrations of the un-ionized form and ionized form exist. For basic compounds such as pilocarpine, when the pH is one unit higher than the pKa, the ratio of the un-ionized form to the ionized form is 91:9. Similarly, when the pH is two units higher than the pKa, the ratio of un-ionized form to the ionized form is […]. As noted above, the un-ionized form is lipophilic and, therefore, more capable of passing through mucous membranes such as the oral mucosa than the ionized form, which is lipophobic in nature. Accordingly, increasing the pH of the saliva favors conversion of the ionized form into the un-ionized form for basic compounds such as pilocarpine, and the final pH can be determined by making use of the above formula. For pilocarpine, the tri-substituted nitrogen in the imidazole group controls the extent of ionization and the degree of lipophilicity in any given medium. Typically, the nitrogen in the imidazole group imparts a pKa of about 6.6 to the molecule at 37° C.

conversion to an un-ionized form [2]: about 90%
Structure (SMILES): CC[C@@H]1C(=O)OC[C@@H]1Cc1cncn1C [pilocarpine]
pKa [1]: about 6.6
